{"source": "patent US20200383983A1", "about": "“CGRP ANTAGONISTS FOR THE TREATMENT OF MEDICATION OVERUSE HEADACHE, POST-TRAUMATIC HEADACHE, POST-CONCUSSION SYNDROME AND VERTIGO” (Allergan Sales, LLC, priority 2019, published 2020)", "molecules": {"B1": {"name": "erenumab (antibody, chains of the INN, looked up, V domains shown)", "VH": "QVQLVESGGGVVQPGRSLRLSCAASGFTFSSFGMHWVRQAPGKGLEWVAVISFDGSIKYSVDSVKGRFTISRDNSKNTLFLQMNSLRAEDTAVYYCARDRLNYYDSSGYYHYKYYGMAVWGQGTTVTVSS", "VL": "QSVLTQPPSVSAAPGQKVTISCSGSSSNIGNNYVSWYQQLPGTAPKLLIYDNNKRPSGIPDRFSGSKSGTSTTLGITGLQTGDEADYYCGTWDSRLSAVVFGGGTKLTVL"}}, "key": {"[1]": {"conditions": "stated generally, small molecules compared with monoclonal antibodies; cited from earlier work"}, "[2]": {"assay": "Case scenario: patient with chronic migraine and medication overuse headache, weaning off Fiorinal", "format": "in vivo, human", "source_text": "(§1) The following non-limiting examples provide those of ordinary skill in the art with possible case scenarios and specific methods to treat conditions within the scope of the present disclosure and are not intended to limit the scope of the disclosure.\n[…] This responded well to Excedrin at that time. As they became older their headaches became more frequent and by the time they were in their late 20's they had headache on more than half the days of the month. Excedrin was no longer effective, and their primary care physician prescribed Fiorinal (aspirin, caffeine and barbiturate compound). […] […] Their primary care physician, on routine blood work noted: worsening renal and liver function tests. The patient reported depression and disability related to their headache disorder. They could not work or participate in family events. They were referred to a neurologist who specialized in headache disorders. They diagnosed them with episodic migraine without aura that had transformed to chronic migraine with associated medication overuse headache. They also diagnosed end organ damage with hepatic and renal damage secondary to analgesic overuse. They recommended a preventive treatment and that they taper off of Fiorinal. The patient started Topiramate as a migraine preventive and despite their best efforts they were unable to wean off of Fiorinal, due to breakthrough headache. They returned to the Neurologist and they prescribed Ubrogepant 50 mg daily for 10 days. […] They continued Topiramate treatment and used Ubrogepant 50 mg a day as needed for breakthrough headache. […] They were able to return to work and to participate in family events."}, "[3]": {"assay": "Case scenario: patient with post-traumatic headache (PTH), subjective pain rating", "format": "in vivo, human", "conditions": "for pain rating at worst, subjective rating scale of zero (no pain) to 10 (worst pain): before treatment 10; for pain rating at best, subjective rating scale of zero (no pain) to 10 (worst pain): before treatment eight; for pain rating on average, subjective rating scale of zero (no pain) to 10 (worst pain): before treatment nine", "source_text": "as §1\nA person complains of right-sided frontal headaches. The patient stated the headaches began 3 months ago after accidentally being hit in the face at the right frontal, maxillary, and zygomatic bones with a heavy instrument. They deny any loss of consciousness at the time of the incident and describes the pain as a “constant achy” to “stabbing” pain primarily over the right eye and right zygomatic bone. They complain of intermittent blurred vision when the pain becomes “stabbing.” They also complain of intermittent tinnitus. On a subjective rating scale of zero (no pain) to 10 (worst pain), the patient rates their pain as eight at best, nine on average, and 10 at worst. Results from a radiographic scan of the skull, CT scan of the brain, and MRI scan of the brain and cervical spine are normal. Results from slit lamp and neurologic testing are also normal. The patient is diagnosed to have PTH. The patient can be treated with ubrogepant at a dose of 100 mg, once a day. The treatment with ubrogepant can reduce the pain experienced by the patient and the patient can rate their pain as five at best, six on average, and nine at worst.\nA person complains of right-sided frontal headaches. The patient stated the headaches began 3 months ago after accidentally being hit in the face at the right frontal, maxillary, and zygomatic bones with a heavy instrument. They deny any loss of consciousness at the time of the incident and describes the pain as a “constant achy” to “stabbing” pain primarily over the right eye and right zygomatic bone. They complain of intermittent blurred vision when the pain becomes “stabbing.” They also complain of intermittent tinnitus. On a subjective rating scale of zero (no pain) to 10 (worst pain), the patient rates their pain as eight at best, nine on average, and 10 at worst. Results from a radiographic scan of the skull, CT scan of the brain, and MRI scan of the brain and cervical spine are normal. Results from slit lamp and neurologic testing are also normal. The patient is diagnosed to have PTH. The patient can be treated with erenumab at a dose of 70 mg by subcutaneous administration. A month after the erenumab administration, the patient can rate their pain as five at best, six on average, and nine at worst."}, "[4]": {"assay": "Case scenario: patient with migraine without aura and medication overuse headache (triptan overuse)", "format": "in vivo, human", "conditions": "50 mg once a day, patient averaging 25 doses of oral triptan per month", "source_text": "as §1\nA person visits a headache clinic with almost daily migraine attacks. Their migraines have been ongoing since they were […]. […] Eventually, however, the migraine attacks became longer, lasting up to 3 or 4 days and forcing them to take 4 or 5 doses of triptan per attack. Currently, they are averaging 25 doses of oral triptan per month. They are diagnosed with migraine without aura and medication overuse headache. They are treated with ubrogepant at a dose of 50 mg, once a day."}, "[5]": {"conditions": "70 mg subcutaneous, a month after administration"}}, "data": [{"molecule": "C[C@@H]1[C@H](c2c(F)ccc(F)c2F)C[C@H](NC(=O)c2cnc3c(c2)C[C@@]2(C3)C(=O)Nc3ncccc32)C(=O)N1CC(F)(F)F", "note": "[atogepant]", "values": [{"measurement": "half-life", "setting": "[1]", "result": "measured in hours"}]}, {"molecule": "N[C@@H]1c2cccnc2[C@H](OC(=O)N2CCC(n3c(=O)[nH]c4ncccc43)CC2)CC[C@H]1c1cccc(F)c1F", "note": "[rimegepant]", "values": [{"measurement": "half-life", "setting": "[1]", "result": "measured in hours"}]}, {"molecule": "C[C@@H]1[C@H](c2ccccc2)C[C@H](NC(=O)c2cnc3c(c2)C[C@@]2(C3)C(=O)Nc3ncccc32)C(=O)N1CC(F)(F)F", "note": "[ubrogepant]", "values": [{"measurement": "need of as-needed use for breakthrough headache", "setting": "[2]; 50 mg a day as needed, after 3 months", "result": "once or twice a month"}, {"measurement": "effect on migraine attacks and recurrence", "setting": "[2]; 50 mg a day as needed, continued Topiramate", "result": "effectively ended their migraine attacks and they had no recurrence requiring re-treatment"}, {"measurement": "need of as-needed use for breakthrough headache", "setting": "[2]; 50 mg a day as needed, first month after weaning off Fiorinal", "result": "twice a week"}, {"measurement": "weaning off the overused medication (Fiorinal)", "setting": "[2]; 50 mg daily for 10 days, with Topiramate as preventive", "result": "able to successfully wean off of Fiorinal"}, {"measurement": "half-life", "setting": "[1]", "result": "measured in hours"}, {"measurement": "pain rating at worst, subjective rating scale of zero (no pain) to 10 (worst pain)", "setting": "[3]; 100 mg once a day", "result": "nine"}, {"measurement": "pain rating at best, subjective rating scale of zero (no pain) to 10 (worst pain)", "setting": "[3]; 100 mg once a day", "result": "five"}, {"measurement": "pain rating on average, subjective rating scale of zero (no pain) to 10 (worst pain)", "setting": "[3]; 100 mg once a day", "result": "six"}, {"measurement": "intensity and frequency of migraine", "setting": "[4]", "result": "can reduce the intensity and frequency of migraine"}]}, {"molecule": "B1", "values": [{"measurement": "pain rating at worst, subjective rating scale of zero (no pain) to 10 (worst pain)", "setting": "[3]; [5]", "result": "nine"}, {"measurement": "pain rating at best, subjective rating scale of zero (no pain) to 10 (worst pain)", "setting": "[3]; [5]", "result": "five"}, {"measurement": "pain rating on average, subjective rating scale of zero (no pain) to 10 (worst pain)", "setting": "[3]; [5]", "result": "six"}]}]}
